Patent publication US20110212235A1, “ANTIMICROBIAL SALT SOLUTIONS FOR CHEESE PROCESSING APPLICATIONS” (priority 2006, published 2011)

How the values were obtained:
Type in all cases: cell-based
[1] = system: black mold; assay: “Mold” procedure, black mold
Experimental: (§1) In the present example, cultures of various microorganisms native to actual process brines used in cheese manufacture were obtained from a cheese plant. The cultures of yeast, mold, and coliforms were grown and used to test the efficacy of various antimicrobial additives in blue cheese brines. Organism cultures included four different types of yeast (three distinct while yeast cultures and a pink yeast), a black mold culture, a coliform culture, a culture of mixed green mold and yeast that were not separated, and a culture that was identified by the cheese plant as heterofermentative lactic acid bacteria, although no actual identification of the strain was carried out.
(§2) “Mold” Procedure: • 1. From refrigerated stock mold cultures, take 1 ml from black mold dilution bottle added to 99 ml of cold Butterfield's Phosphate Buffered Water (PBW) to obtain 10^5 cfu/ml. • 2. Take 1 ml from green mold/white yeast mixture dilution bottle added to 99 ml of cold Butterfield's Phosphate Buffered Water (PBW) to obtain 10^6 cfu/ml. • 3. Plate serial dilutions of the cultures to get the starting count of the inoculum on Dichloran-Rose Bengal-Chloramphenicol Agar (DRBC). • 4. Add 1 ml of the diluted mold culture to 100 ml of cold test solution (do separately for each of the two mold cultures). • 5. Determine the population at time 0 and 4 hours. Spread plate serial dilutions to DRBC agar. • 6. Incubate the test solutions at 10° C.+/−2° C. for the duration of the experiment. • 7. Incubate the plates at 20° C.+/−2° C. for 5 days+/−2 hours. • 8. Count representative colonies and multiply by the dilution factor. Note: For black mold, each test solution should contain ˜10^3 cfu/ml. For green mold/white yeast mixture, each test solution should contain ˜10^4 cfu/ml.

[2] = system: yeast cocktail (Raised, Rough and Flat white yeast and a pink yeast); assay: “Yeast” procedure, yeast cocktail
Source text: as §1, with “The cultures of yeast, mold, and coliforms were grown and used to test the efficacy of various antimicrobial additives in blue cheese brines.” left out
(§3) “Yeast” Procedure: • 1. Inoculate a separate tube containing 10 ml of Brain Heart Infusion (BHI) broth for each wild type (Raised, Rough and Flat white yeast along with a single pink yeast). Incubate for 5 days at 26° C.+/−2° C. • 2. Assume growth to be 10^7 cfu/ml. Since 4 cultures are being used, combine 2.75 ml of each culture added to 99 ml of cold Butterfield's Phosphate Buffered Water (PBW) to obtain 10^6 cfu/ml of yeast cocktail. • 3. Plate serial dilutions of the culture to get the starting count of the inoculum on Dichloran-Rose Bengal-Chloramphenicol Agar (DRBC). • 4. Add 1 ml of the diluted cocktail to 100 ml of cold test solution. • 5. Determine the population at time 0 and 4 hours. Spread plate serial dilutions to DRBC agar. • 6. Incubate the test solutions at 10° C.+/−2° C. for the duration of the experiment. • 7. Incubate the plates at 20° C.+/−2° C. for 5 days+/−2 hours. • 8. Count representative colonies and multiply by the dilution factor. Note: Each test solution should contain ˜10^4 cfu/ml.
(§4) The brines were treated with different concentrations of octanoic acid and then challenged with a yeast cocktail (which included the pink and 3 different white mold types), the green mold+yeast combination, and coliforms.

[3] = system: wild type coliforms from cheese plant brine; assay: Coliforms procedure in cheese brine or buffered solution
[4] = system: Uncharacterized microorganisms cultured from raw ground beef; assay: Total plate count challenge of 24% NaCl brine with ground beef organisms; conditions: after 4 hours in 24% NaCl brine at −5° C.
Experimental: Tests were run to determine the effectiveness of formulas against organisms other than L. monocytogenes. […] The test solutions were inoculated with the ground beef organism culture and incubated for 4 hours at −5° C. before plating.

[5] = system: wild type coliforms from cheese plant brine; assay: Coliforms procedure in cheese brine or buffered solution; remark: listed apart in the source
Experimental: as §1
Coliforms Procedure: • 1. Inoculate a separate tube containing 10 ml of Brain Heart Infusion (BHI) broth for each wild type coliforms 1 and 2. Incubate for 24+/−2 hours at 35° C.+/−2° C. • 2. Assume growth to be 10^9 cfu/ml. Since two cultures are being used, combine 5.5 ml of each culture added to 99 ml of cold Butterfield's Phosphate Buffered Water (PBW) to obtain 10^8 cfu/ml. • 3. Plate serial ten-fold dilutions of the culture to get the starting count of the inoculum on Violet Red Bile Agar (VRBA). • 4. Add 1 ml of the diluted cocktail to 100 ml of cold test solution. • 5. Determine the population at time 0 and 4 hours by plating serial dilutions to VRBA spread plates. • 6. Incubate the test solutions at 10° C.+/−2° C. for the duration of the experiment. • 7. Incubate the plates at 20° C.+/−2° C. for 72+/−2 hours. • 8. Count representative colonies and multiply by the dilution factor. Note: Each test solution should contain ˜10^8 cfu/ml.
as §4

[6] = system: White Yeast; assay: Yeast challenge, white yeast; conditions: after 4 hours in mozzarella cheese brine; Table 19
Experimental: as §3
(§5) In order to determine if the effect of the additive was repeatable, more challenge tests were run on samples of process brine. […] In this test the solutions were challenged with two distinct yeast (a white and a pink) types and coliforms from the samples sent by the cheese plant.

[7] = system: Pink Yeast; assay: Yeast challenge, pink yeast; conditions: after 4 hours in mozzarella cheese brine; Table 19
Experimental: as §3, §5

[8] = system: L. monocytogenes biofilm; assay: L. mono biofilm challenge in hot dog plant chill brine at −20° C.; conditions: for L. mono biofilm count, 1 hour: 1 hour at −20° C.; for L. mono biofilm count, 1 hour / L. mono biofilm count, 24 hours: hot dog plant chill brine with cooked turkey added; for L. mono biofilm count, 24 hours: 24 hours at −20° C.
Experimental: Biofilms can provide a haven for pathogens, increasing their resistance to antimicrobial treatments, and thereby providing another possible source of food contamination. Tests were run to see if some embodiments were effective against a L. monocytogenes biofilm. Challenge tests were run according to the procedure below. Test solutions were prepared from a sample of hot dog plant chill brine which was treated with various levels of the alcohol ethoxylate surfactant. Cooked turkey was added to the test solution before inoculation to simulate a worst case “dirty” brine with a high degree of organic load.
1. Inoculate five cultures, L. monocytogenes H2446 (CDC Global Standard), Scott A-serotype 4b, 12243-serotype 1/2a, WP1 and WP4 in 10 ml Brain Heart Infusion broth (BHI). Incubate the tubes for 7 days at 10° C.+/−2° C. 2. Aseptically dispense 50 ml of sterile Tryptic Soy Broth (TSB)+0.6% Yeast Extract (YE) into sterile disposable 50 ml conical shaped plastic tubes. Make enough tubes for each time point. 3. Aseptically drop one coupon into the broth in each tube. 4. Make a cocktail of the five cultures and add 0.1 ml into each tube. Incubate the tubes for 7 days at 7° C.+/−2° C. 5. Dispense 40 ml of antimicrobial salt solutions containing sterile phosphate buffer into 50 ml plastic tubes. 6. After biofilm has grown, aseptically remove coupon and rinse each side for 5 seconds with sterile distilled water to remove unattached cells. 7. Aseptically drop each rinsed coupon into the antimicrobial salt solution tube and incubate for appropriate time (1 hour and 24 hour) at −20° C.+/−2° C. 8. Aseptically add 45 ml of sterile phosphate buffer (PBW) to 50 ml conical shaped plastic tubes along with 10 sterile glass beads. 9. After incubate time is complete, aseptically move the coupon from the antimicrobial salt solution to the sterile (PBW) solution containing beads. 10. Shake the tube with glass beads for about 2 minutes to remove attached cells. 11. Plate the cells in the PBW solution on TSA+0.6% YE using appropriate dilutions and incubate at 20° C. for 72+/−2 hours. 12. Plate the antimicrobial salt solution on TSA+0.6% YE using appropriate *dilutions and incubate 20° C. for 72+/−2 hours. *Please make note: The first dilution should take place in 9 ml DE Neutralizing Buffer. After incubation, count typical colonies and record results to cfu/g.

[9] = system: L. monocytogenes; assay: L. monocytogenes cocktail challenge of surfactant/salt solutions at 2° C.; conditions: after 4 hours in solution at 2° C.
Experimental: Tests were generally run according to the following procedure:
(§6) 1. Inoculate a separate tube containing approximately 10 ml of Brain Heart infusion (BHI) broth with the following L. monocytogenes strains: H2446 (CDC Global Standard), Scott A (serotype 4b), 12243 (serotype 1/2a), and two strains isolated from the environment of a cooked meat and poultry facility, designated WP1, and WP4. Incubate the tubes at least 5 days at 7-10° C.+/−2° C. 2. Assume the growth to be 10^9 cfu/ml. Serially dilute each culture in cold (˜7° C.). Butterfield's Phosphate Buffered Water (PBW) to 10^8 cfu/ml (1:10). Since five cultures of L. monocytogenes are being used as a cocktail, begin the dilution series using 2.20 ml of each culture added to 99 ml of PBW. 3. Plate (−6, −7, −8) the diluted culture to get the starting count of the inoculum on Modified Oxford medium (MOX) using a thin agar overlay (TAL) technique (overlay with Trypticase Soy Agar [TSA]) to revive injured cells. 4. Add 1 ml of the diluted cocktail to 100 ml of cold test solution. 5. Mix the solutions well. 6. Determine the L. monocytogenes population at time 0 and 4 hours. Plate −1 (0.1 ml on 1 plate), −2, −3, and −4 dilutions using spread plates on MOX TAL with TSA. 7. Incubate the test solutions at test temperature for the duration of the experiment. 8. Incubate the MOX TAL with TSA plates at 20° C.+/−2° C. for 72+/−3 hours. Count representative colonies, which are black, and multiply by the dilution factor.

[10] = system: L. monocytogenes; assay: L. monocytogenes challenge in beef plant chill brine at 4° C.; conditions: after 4 hours at 4° C.; surfactant added to beef plant brine, approximately 17% sodium chloride
Experimental: as §6
Several tests were carried out to determine the effectiveness of embodiments according to the invention in meat processing chill brines. In one experiment, brine was taken at the end of a production week from a brine chiller used in a ready to eat, cooked beef production line. The sodium chloride concentration in this brine was approximately 17%. Samples of the brine with and without added surfactant were inoculated with a cocktail of L. monocytogenes as per the procedure described above, incubated at 4° C. for four hours, and then plated to determine L. monocytogenes survival.

[11] = system: green mold/white yeast mixture; assay: “Mold” procedure, green mold/white yeast mixture; conditions: 500 ppm in mozzarella brine
Experimental: as §1, §2
Screening tests identified octanoic acid as a promising antimicrobial additive for salt brines. Table 16 gives results of a challenge test run on actual blue cheese and mozzarella process brine samples sent from a cheese plant. The brines were treated with different concentrations of octanoic acid and then challenged with a yeast cocktail (which included the pink and 3 different white mold types), the green mold+yeast combination, and coliforms. […] The plate counts listed parenthetically as (est) were too numerous to count and were estimated.

[12] = after 4 hours in buffer of 375 ppm acetic acid and 525 ppm sodium acetate, pH 4.74
[13] = after 4 hours in blue cheese brine taken before or after brining cheese wheels, Table 22
[14] = about 250 ppm in blue cheese brine

CCCCCCCC(=O)[O-].[Na+] [70 ppm Na Octanoate, sodium octanoate]
Black Mold count [1, 12]: 510 cfu/mL
Yeast Cocktail count [2, 12]: 7,500 cfu/mL
Coliform count [3, 12]: 12,000 cfu/mL

CCCCCCCC(=O)[O-].[Na+] [140 ppm Na Octanoate, sodium octanoate]
Black Mold count [1, 12]: 630 cfu/mL
Yeast Cocktail count [2, 12]: 10,000 cfu/mL
Coliform count [3, 12]: 7,700 cfu/mL

[Cl-].[Na+] [24% NaCl, sodium chloride, reference compound]
Black Mold count [1, 12]: 660 cfu/mL
Yeast Cocktail count [2, 12]: 6,600 cfu/mL
Coliform count [3, 12]: 11,000 cfu/mL

alcohol ethoxylate [800 ppm alcohol ethoxylate]
Total plate count [4]: <10 cfu/mL

decyl alcohol ethoxylate, POE-6 [800 ppm decyl alcohol ethoxylate, POE-6]
Total plate count [4]: 10 cfu/mL

CCCCCCCC(=O)[O-].[Na+] [35 ppm Na Octanoate, sodium octanoate]
Black Mold count [1, 12]: 710 cfu/mL
Yeast Cocktail count [2, 12]: 9,000 cfu/mL
Coliform count [3, 12]: 7,000 cfu/mL

CCCCCCCC(=O)O [250 ppm octanoic acid (after cheese), octanoic acid]
Coliform count [5, 13]: <10 cfu/mL
Black Mold count [1, 13]: <10 cfu/mL
Yeast Cocktail count [2, 13]: <10 cfu/mL

sodium salt of sulfonated oleic acid
Total plate count [4]: 5.2 × 10^3 cfu/mL

CCCCCCCC(=O)O [1250 ppm octanoic acid, octanoic acid]
White Yeast count [6]: <10 cfu/mL
Pink Yeast count [7]: <10 cfu/mL
Coliform count ([3]; after 4 hours in mozzarella cheese brine, Table 19): 1.2 × 10^3 cfu/mL

alcohol ethoxylate [25 ppm alcohol ethoxylate]
L. mono biofilm count, 1 hour [8]: 3500 cfu/coupon
L. mono biofilm count, 24 hours [8]: 250 cfu/coupon

alcohol ethoxylate [50 ppm alcohol ethoxylate]
L. mono count ([9]; Table 2, different salts and salt concentrations): 1.9 × 10^5 cfu/mL
L. mono biofilm count, 1 hour [8]: 10-100 cfu/coupon
L. mono biofilm count, 24 hours [8]: <10 cfu/coupon
log kill of the biofilm within 1 hour ([8]; very “dirty” brine, −20° C., 1 hour): > 2 log
log kill of the biofilm after 24 hours ([8]; very “dirty” brine, −20° C., 24 hours): > 3 log

sodium linear alkylbenzene sulfonate
Total plate count [4]: <10 cfu/mL

nonylphenol ethoxylate [50 ppm nonylphenol ethoxylate]
L. mono count ([9]; Table 1): 1.3 × 10^5 cfu/mL
L. mono count [10]: <10 cfu/mL

CCCCCCCC(=O)O [octanoic acid, octanoic (caprylic) acid]
log kill of coliform [5, 14]: ~3 log
log kill of mold [1, 14]: ~3 log
log reduction in the yeast+mold count [11]: 2 log
log kill of one of the yeast cultures ([2]; 250 ppm in mozzarella brine (so in the source)): > 3.76 log
log kill of yeast [2, 14]: ~3 log
log reduction in the coliform count ([3]; 500 ppm in mozzarella brine): 2 log
log kill of coliforms ([3]; mozzarella brine, Table 19): ~2 log

alcohol ethoxylate [15 ppm alcohol ethoxylate]
L. mono biofilm count, 1 hour [8]: 5,000 cfu/coupon
L. mono biofilm count, 24 hours [8]: 5600 cfu/coupon
